Data taken from patent publication US5470866A, “Method for the conversion of cephalomannine to taxol and for the preparation of n-acyl analogs of taxol” (Virginia Polytechnic Institute and State University, priority 1994, dated 1995).
In brackets after ≈: the same amount, converted by molar mass.

How the values were obtained:
[1] = tested on: P-388 lymphocytic leukemia cells; test: cell culture assay using P-388 lymphocytic leukemia cells (cytotoxicity of N-debenzoyl-N-acyltaxols); format: cell-based; settings: Mus musculus, P388; P-388 cell culture; taxol reference; read-out: Absolute ED50
Method: For details of the cell culture assay, see Abbott, B. J., "Protocol 14 of Instruction 275," National Cancer Institute, National Institutes Of Health, Jan. 24, 1978. N-acyltaxol analogs are important analogs of taxol for anticancer treatment. The present invention provides a simple way of preparing such analogs from taxol or cephalomannine without removing the C-13 side-chain.
*Cytotoxicity is recorded as ED50 value relative to taxol determined
in the same assay. Absolute ED50 of taxol is approximately 0.03

[2] = in some assays; reported in literature; cited from earlier work

Structure (SMILES)	IC50 [1] [µg/mL]	activity relative to taxol [2]
CC(=O)O[C@H]1C(=O)[C@@]2(C)[C@H]([C@H](OC(=O)c3ccccc3)[C@]3(O)C[C@H](OC(=O)[C@H](O)[C@@H](NC(=O)c4ccccc4)c4ccccc4)C(C)=C1C3(C)C)[C@]1(OC(C)=O)CO[C@@H]1C[C@@H]2O [taxol]	~0.03 (≈ 0.0351 µM)	–
CC(=O)O[C@@]12CO[C@@H]1C[C@H](O)[C@@]1(C)C(=O)[C@H](O)C3=C(C)[C@@H](OC(=O)[C@H](O)[C@@H](NC(=O)OC(C)(C)C)c4ccccc4)C[C@@](O)([C@@H](OC(=O)c4ccccc4)[C@H]21)C3(C)C [taxotere]	–	approximately twice as active as taxol
